According to patent publication US20080160019A1, “SEQUENTIAL COMBINATION THERAPY” (DYAX CORP., priority 2006, published 2008):

Legend:
[1] = tested on: BxPC3 (human pancreatic cancer cell line) tumor; test: Pancreatic cancer xenograft model, tumor size by calipers (Example 3); assay type: in vivo, nude mice (nu/nu); details: for calculated tumor growth rate, After Avastin / calculated tumor growth rate, Before Avastin (Day 21) / calculated tumor growth rate, Before Avastin (Day 10): DX-2240 or control IgG 20 mg/kg IP Q2d from day 1; for calculated tumor growth rate, Before Avastin (Day 21): before bevacizumab (twenty day pretreatment groups); for calculated tumor growth rate, Before Avastin (Day 10): before bevacizumab start at day 10; for tumor size as compared to control: as single agents; on calculated tumor growth rate, After Avastin: unit not given here; on calculated tumor growth rate, Before Avastin (Day 10): unit not given here; on calculated tumor growth rate, Before Avastin (Day 21): unit not given here
Procedure: The antitumor activity of combinations of DX-2240 and bevacizumab (anti-VEGF antibody) or sorafenib (multi-kinase inhibitor) were tested in a human tumor xenograft model. BxPC3 (human pancreatic cancer cell line) tumor fragments harvested from host nude mice (nu/nu) bearing subcutaneous BxPC-3 tumors were implanted subcutaneously into female nude mice (study animals) and allowed to form tumors. Mice were pair matched by tumor size and randomized into the various treatment groups when the tumors reached approximately 100 mm^3 (about 18 days following tumor implantation). The animals were assorted into the treatment groups shown in Table 1 (“Start” refers to the day on which treatment was begun). DX-2240 was administered by intraperitoneal (IP) injection at 20 mg/kg; bevacizumab was administered by IP injection at 10 mg/kg, sorafenib was administered orally at 60 mg/kg (for a total of 9 doses), and the control IgG (palivizumab, an antibody of the same isotype as DX-2240) was administered by IP injection at 20 mg/kg at the indicated dosing start dates and dosing regimens. An additional positive control group (group 13) was included: these animals were dosed with gemcitabine at 40 mg/kg Q3d for a total of four doses.
Tumor size was evaluated every three to four days using calipers.

[2] = tested on: BxPC-3 human pancreas cancer model; test: BxPC-3 pancreas cancer model, dosing schedules, mean tumor volume (Example 5); assay type: in vivo, nude mice (nu/nu); details: 20 mg/kg IP Q2D x10 from day 1, implanted tumor fragments
Procedure: Female nude mice (nu/nu) were divided into 14 groups. Animals in groups 1-12 were implanted subcutaneously by trocar with BxPC3 tumor fragments harvested from growing tumors in nude mice hosts. Mice in groups 13-14 were injected subcutaneously with approximately 1×10^7 BxPC-3 cells from tissue culture. When injected tumors grew to approximately 104 mm^3 in size (about 19 days following implantation) and implanted tumors grew to approximately 110 mm^3 in size (about 22 days following implantation) animals were pair-matched by tumor size into treatment and control groups. Animals from groups 1 and 2 were used to evaluate tumor vasculature. Animals from groups 13 and 14 were used to compare effects of DX-2240 on tumors formed from cell injection.
Treatment was initiated after the animals were pair-matched (day 1). Animals in all groups were dosed by weight (10 ml/kg). The control IgG and DX-2240 were administered by IP injection at 20 mg/kg, and bevacizumab and the rat α-mouse VEGF IgG antibody were administered by IP injection at 10 mg/kg once every three days. Dosing was initiated on day −3, 1, 5, 6, 10 or 20.
Individual and group mean tumor volumes were recorded twice weekly from day 1 until day 39.

tumor vasculature = test: Lectin staining of tumors (tumor vasculature, Example 5); assay type: in vivo, nude mice (nu/nu); details: for lectin staining, High intensity (3+) / lectin staining, Low intensity (1+) / lectin staining, Medium intensity (2+): 20 mg/kg IP Q2D from day 1, BxPC3 tumors; on lectin staining, High intensity (3+): unit not given here; on lectin staining, Low intensity (1+): unit not given here; on lectin staining, Medium intensity (2+): unit not given here
Procedure: To determine changes in tumor vasculature, three animals from each of groups 1 and 2 were randomly selected for destructive sample collection, including tumor and serum on days 5, 10, 15, and 20. Animals were injected IV with 150 μL of a biotinylated-lectin solution (no injections on day 5 and 15). Five minutes later, animals were perfused by intracardiac injection with a 1% paraformaldehyde solution in PBS for 3 minutes. Tumors were then collected, placed in the perfusion solution, and sent immediately for analysis. Blood was collected by cardiac puncture and serum extracted, flash frozen in liquid nitrogen, and stored at −80° C.

[3] = tested on: DU 145 human prostate tumor model; test: DU 145 prostate tumor model, mean tumor volume (Example 6); assay type: in vivo, nude mice (nu/nu); details: 20 mg/kg IP Q2D x17 from day 1
Procedure: Male nude mice (nu/nu) were injected subcutaneously with DU 145 cells harvested from tissue culture (˜1×10^7 cells/mouse). When tumors grew to approximately 95 mm^3 in size (about 7 days following injection), animals were pair-matched by tumor size into treatment and control groups.
Treatment was initiated after the animals were paired-matched (day 1). Animals in control and treatment groups were dosed by weight (10 ml/kg). DX-2240 and the control IgG (palivizumab) were administered by IP injection either once every other day for seventeen treatments beginning day 1 or once every four days for nine treatments beginning day 1. Sorafenib was dosed per os via gavage once daily for nine treatments beginning day 15. To serve as a control, the control IgG was administered every other day for seventeen treatments beginning day 1. Individual and group mean tumor volumes were recorded twice weekly from day 1 until day 57.

Tie1 = Tie1 (Homo sapiens, UniProt P35590); details: cited from earlier work
Sequence of Tie1 (P35590 22-1138): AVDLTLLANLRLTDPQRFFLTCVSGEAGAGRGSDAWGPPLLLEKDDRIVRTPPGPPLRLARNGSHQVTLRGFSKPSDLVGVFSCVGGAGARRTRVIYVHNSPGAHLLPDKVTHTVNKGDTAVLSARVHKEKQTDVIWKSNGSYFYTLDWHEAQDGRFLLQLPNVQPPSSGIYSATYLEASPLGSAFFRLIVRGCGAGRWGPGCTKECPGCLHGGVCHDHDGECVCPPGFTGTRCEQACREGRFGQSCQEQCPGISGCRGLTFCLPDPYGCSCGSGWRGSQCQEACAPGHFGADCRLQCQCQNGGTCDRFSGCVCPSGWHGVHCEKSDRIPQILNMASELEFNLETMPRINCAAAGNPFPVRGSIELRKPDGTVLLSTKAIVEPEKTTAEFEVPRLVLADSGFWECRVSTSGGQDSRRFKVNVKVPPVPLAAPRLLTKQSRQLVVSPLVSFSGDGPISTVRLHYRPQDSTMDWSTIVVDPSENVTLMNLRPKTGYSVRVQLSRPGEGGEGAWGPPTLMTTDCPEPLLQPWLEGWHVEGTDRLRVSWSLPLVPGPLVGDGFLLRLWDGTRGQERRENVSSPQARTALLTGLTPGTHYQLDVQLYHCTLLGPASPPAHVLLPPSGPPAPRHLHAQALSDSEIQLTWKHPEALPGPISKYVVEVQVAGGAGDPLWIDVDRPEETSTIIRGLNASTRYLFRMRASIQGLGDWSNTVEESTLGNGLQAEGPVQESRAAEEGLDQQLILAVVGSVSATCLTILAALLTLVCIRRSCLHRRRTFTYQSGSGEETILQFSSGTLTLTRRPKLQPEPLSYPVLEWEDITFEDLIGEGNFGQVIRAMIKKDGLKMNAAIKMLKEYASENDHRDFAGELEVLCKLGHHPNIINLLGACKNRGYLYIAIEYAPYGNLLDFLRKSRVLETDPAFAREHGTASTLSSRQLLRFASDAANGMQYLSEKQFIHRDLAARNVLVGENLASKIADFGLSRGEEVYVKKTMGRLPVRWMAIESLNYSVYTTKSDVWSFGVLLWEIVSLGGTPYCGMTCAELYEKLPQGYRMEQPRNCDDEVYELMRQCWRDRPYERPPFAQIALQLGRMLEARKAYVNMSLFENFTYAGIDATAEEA

[4] = after bevacizumab 10 mg/kg IP Q3d (twenty day pretreatment groups)
[5] = after bevacizumab 10 mg/kg IP Q3d started at day 10
[6] = DX-2240 or control IgG from day 1, bevacizumab (Avastin) after twenty day pretreatment
[7] = DX-2240 or control IgG from day 1, bevacizumab (Avastin) from day 10
[8] = day 1, 20 mg/kg IP Q2d from day 1
[9] = day 3, 20 mg/kg IP Q2d from day 1
[10] = day 7, 20 mg/kg IP Q2d from day 1
[11] = day 10, 20 mg/kg IP Q2d from day 1
[12] = day 14, 20 mg/kg IP Q2d from day 1
[13] = day 21, 20 mg/kg IP Q2d from day 1
[14] = day 24, 20 mg/kg IP Q2d from day 1
[15] = day 28, 20 mg/kg IP Q2d from day 1
[16] = day 31, 20 mg/kg IP Q2d from day 1

Control IgG: palivizumab, an antibody of the same isotype as DX-2240 [reference compound]
calculated tumor growth rate, After Avastin [1, 4]: 23.8 ± 8.6 | calculated tumor growth rate, After Avastin [1, 5]: 33.3 ± 6.6 | calculated tumor growth rate, Before Avastin (Day 21) [1]: 28.3 ± 5.2 | calculated tumor growth rate, Before Avastin (Day 10) [1]: 41.1 ± 9.0 | # of stable tumor growths or tumor regressions [1, 6]: 1/8 | # of stable tumor growths or tumor regressions [1, 7]: 0/8 | Tumor volume [1, 8]: 106.9 mm^3 | Tumor volume [1, 9]: 164.7 mm^3 | Tumor volume [1, 10]: 293.2 mm^3 | Tumor volume [1, 11]: 366.4 mm^3 | Tumor volume [1, 12]: 521.8 mm^3 | Tumor volume [1, 13]: 907.5 mm^3 | Tumor volume [1, 14]: 1062.0 mm^3 | Tumor volume [1, 15]: 1354.0 mm^3 | Tumor volume [1, 16]: 1669.1 mm^3 | mean tumor volume ([2]; day 1): 107.6 mm^3 | mean tumor volume ([2]; day 4): 180.1 mm^3 | mean tumor volume ([2]; day 8): 237.7 mm^3 | mean tumor volume ([2]; day 11): 249.9 mm^3 | mean tumor volume ([2]; day 15): 355.9 mm^3 | mean tumor volume ([2]; day 18): 300.0 mm^3 | lectin staining, High intensity (3+) (tumor vasculature; Day 10): 19242 | lectin staining, Low intensity (1+) (tumor vasculature; Day 10): 1214685 | lectin staining, Medium intensity (2+) (tumor vasculature; Day 10): 3148400 | lectin staining, High intensity (3+) (tumor vasculature; Day 20): 7824 | lectin staining, Low intensity (1+) (tumor vasculature; Day 20): 222879 | lectin staining, Medium intensity (2+) (tumor vasculature; Day 20): 272402 | mean tumor volume ([3]; day 1): 94.9 mm^3 | mean tumor volume ([3]; day 5): 125.7 mm^3 | mean tumor volume ([3]; day 9): 195.1 mm^3 | mean tumor volume ([3]; day 13): 293.5 mm^3 | mean tumor volume ([3]; day 15): 320.9 mm^3 | mean tumor volume ([3]; day 19): 400.7 mm^3 | mean tumor volume ([3]; day 23): 417.8 mm^3 | mean tumor volume ([3]; day 26): 487.6 mm^3 | mean tumor volume ([3]; day 29): 450.5 mm^3 | mean tumor volume ([3]; day 33): 501.1 mm^3 | mean tumor volume ([3]; day 36): 529.3 mm^3

CNC(=O)c1cc(Oc2ccc(NC(=O)Nc3ccc(Cl)c(C(F)(F)F)c3)cc2)ccn1 [sorafenib]
tumor size as compared to control [1]: reduced tumor size

DX-2240: Germlined F allotyped E3 antibody, Tie1 ectodomain-binding (SEQ ID NO:10-13)
calculated tumor growth rate, After Avastin [1, 4]: 18.6 ± 8.0 | calculated tumor growth rate, After Avastin [1, 5]: 12.2 ± 3.3 | calculated tumor growth rate, Before Avastin (Day 21) [1]: 23.1 ± 6.6 | calculated tumor growth rate, Before Avastin (Day 10) [1]: 23.9 ± 4.9 | # of stable tumor growths or tumor regressions [1, 6]: 2/8 | # of stable tumor growths or tumor regressions [1, 7]: 1/6 | tumor size as compared to control [1]: reduced tumor size | Tumor volume [1, 8]: 105.6 mm^3 | Tumor volume [1, 9]: 139.9 mm^3 | Tumor volume [1, 10]: 223.1 mm^3 | Tumor volume [1, 11]: 331.6 mm^3 | Tumor volume [1, 12]: 460.5 mm^3 | Tumor volume [1, 13]: 724.4 mm^3 | Tumor volume [1, 14]: 954.1 mm^3 | Tumor volume [1, 15]: 1171.1 mm^3 | Tumor volume [1, 16]: 1351.4 mm^3 | mean tumor volume ([2]; day 1): 107.7 mm^3 | mean tumor volume ([2]; day 4): 157.7 mm^3 | mean tumor volume ([2]; day 8): 194.2 mm^3 | mean tumor volume ([2]; day 11): 199.0 mm^3 | mean tumor volume ([2]; day 15): 308.7 mm^3 | mean tumor volume ([2]; day 18): 289.1 mm^3 | lectin staining of tumors as compared to control animals (tumor vasculature; DX-2240 20 mg/kg IP Q2D): less lectin staining | functional tumor vasculature (tumor vasculature; DX-2240-treated animals): less functional tumor vasculature | lectin staining, High intensity (3+) (tumor vasculature; Day 10): 92134 | lectin staining, Low intensity (1+) (tumor vasculature; Day 10): 909706 | lectin staining, Medium intensity (2+) (tumor vasculature; Day 10): 3468512 | lectin staining, High intensity (3+) (tumor vasculature; Day 20): 5922 | lectin staining, Low intensity (1+) (tumor vasculature; Day 20): 122022 | lectin staining, Medium intensity (2+) (tumor vasculature; Day 20): 205406 | mean tumor volume ([3]; day 1): 94.6 mm^3 | mean tumor volume ([3]; day 5): 162.6 mm^3 | mean tumor volume ([3]; day 9): 269.3 mm^3 | mean tumor volume ([3]; day 13): 417.3 mm^3 | mean tumor volume ([3]; day 15): 460.0 mm^3 | mean tumor volume ([3]; day 19): 553.9 mm^3 | mean tumor volume ([3]; day 23): 644.4 mm^3 | mean tumor volume ([3]; day 26): 707.1 mm^3 | mean tumor volume ([3]; day 29): 737.8 mm^3 | mean tumor volume ([3]; day 33): 866.7 mm^3 | mean tumor volume ([3]; day 36): 1008.3 mm^3 | Tie1 tyrosine phosphorylation (Tie1): induce | Tie complex formation (Tie1): induce | down modulation of Tie1 from the cell surface (Tie1): induce | Tie1/Tie2 heterodimers on the surface of cells expressing Tie1 and Tie2 (Tie1; e.g., endothelial cells): down-modulation

Nc1ccn([C@@H]2O[C@H](CO)[C@@H](O)C2(F)F)c(=O)n1 [gemcitabine]
Tumor volume ([1]; day 1, 40 mg/kg Q3d, four doses (positive control group 13)): 106.5 mm^3 | Tumor volume ([1]; day 3, 40 mg/kg Q3d, four doses (positive control group 13)): 144.1 mm^3 | Tumor volume ([1]; day 7, 40 mg/kg Q3d, four doses (positive control group 13)): 214.9 mm^3 | Tumor volume ([1]; day 10, 40 mg/kg Q3d, four doses (positive control group 13)): 280.8 mm^3 | Tumor volume ([1]; day 14, 40 mg/kg Q3d, four doses (positive control group 13)): 347.7 mm^3 | Tumor volume ([1]; day 21, 40 mg/kg Q3d, four doses (positive control group 13)): 686.1 mm^3 | Tumor volume ([1]; day 24, 40 mg/kg Q3d, four doses (positive control group 13)): 848.1 mm^3 | Tumor volume ([1]; day 28, 40 mg/kg Q3d, four doses (positive control group 13)): 1084.8 mm^3 | Tumor volume ([1]; day 31, 40 mg/kg Q3d, four doses (positive control group 13)): 1325.2 mm^3
